Experimental data: patent publication US20230355547A1, “STABILIZATION OF VITAMIN A IN A NUTRITIONAL SOLUTION” (BAXTER INTERNATIONAL INC., priority 2020, published 2023)

Assay: Impact of dissolved oxygen on the stability of vitamin A in a 10% soybean lipid emulsion (Example 4)
Assay type: physicochemical
Conditions: more than 6 months at 40° C., independently of light exposure
Excerpt: Accordingly, at an oxygen level of about 0.300 ppm vitamin A after 6 months is no longer considered stable, i.e. recovery drops below 80%.
Various methods can be used to determine the DO content of a given solution. Generally, electrochemical or optical sensors are used for determining the DO concentration according to the invention. A preferred method comprises using a fiber-optic oxygen meter such as MICROX TX3, which is a single-channel, temperature-compensated oxygen meter with fiber-optic trace oxygen microsensors based on a glass fiber (e.g. 140 μm). […] For data visualization during measurements, the oxygen meter is connected to a LCD & Data-Logger Unit.
The stability of vitamin A was tested in a 10% soybean lipid emulsion having a peroxide level of below 5 milliequivalents (mEq) O2/kg. The lipid emulsion contained vitamin A in a concentration of 1 dd/25 mL, as well as vitamin E in a concentration of 1 dd/25 mL and the pH was adjusted to 5.9 with HCl.
FIG. 2 depicts the dependency of vitamin A recovery on the presence of dissolved oxygen.

stability in the presence of oxygen of above 0.3 ppm: not stable
Substance: vitamin A
